Target: T1, Mtb cytochrome bd (Mycobacterium tuberculosis, UniProt L7N662+O06139)
T1 sequence (L7N662 1-485): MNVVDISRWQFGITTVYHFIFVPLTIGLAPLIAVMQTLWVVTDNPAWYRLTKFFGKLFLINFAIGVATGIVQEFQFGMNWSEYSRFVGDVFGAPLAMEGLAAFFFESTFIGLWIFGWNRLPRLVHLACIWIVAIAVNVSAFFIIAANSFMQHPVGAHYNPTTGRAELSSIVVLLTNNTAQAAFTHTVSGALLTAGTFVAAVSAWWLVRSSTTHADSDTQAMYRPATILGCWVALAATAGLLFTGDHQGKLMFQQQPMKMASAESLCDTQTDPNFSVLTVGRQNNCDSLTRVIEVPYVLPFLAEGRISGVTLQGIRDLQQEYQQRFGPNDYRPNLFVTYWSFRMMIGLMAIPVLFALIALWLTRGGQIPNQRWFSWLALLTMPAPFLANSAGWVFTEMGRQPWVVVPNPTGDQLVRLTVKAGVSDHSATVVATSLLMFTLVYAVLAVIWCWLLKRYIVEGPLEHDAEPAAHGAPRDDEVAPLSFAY
T1 sequence (O06139 1-346): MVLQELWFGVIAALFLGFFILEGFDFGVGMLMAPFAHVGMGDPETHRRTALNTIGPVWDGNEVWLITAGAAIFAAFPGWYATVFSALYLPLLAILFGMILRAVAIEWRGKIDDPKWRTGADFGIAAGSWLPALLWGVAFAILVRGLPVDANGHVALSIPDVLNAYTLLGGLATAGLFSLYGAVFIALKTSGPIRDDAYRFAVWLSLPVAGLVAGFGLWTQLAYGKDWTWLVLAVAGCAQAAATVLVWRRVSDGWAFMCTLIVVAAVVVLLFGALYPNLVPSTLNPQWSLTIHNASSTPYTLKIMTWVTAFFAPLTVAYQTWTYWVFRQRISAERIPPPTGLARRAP
Assay type: biochemical
Conditions: read-out: % remaining OCR at 10 μM

Row | SMILES | remaining activity at 10 µM
1 | CCOc1ccc(-c2nc(CSc3nc4ccccc4c(=O)n3CCCN3CCCC3=O)c(C)o2)cc1 [F3382-2259] | 30.4%
2 | C=CCSc1ncc(-c2ccccc2)n1-c1ccc(C)cc1 [F2964-1180] | 50.6%
3 | CC(C)(c1cc(Br)c(OCC(O)CN2CCN(Cc3ccccc3)CC2)c(Br)c1)c1cc(Br)c(OCC(O)CN2CCN(Cc3ccccc3)CC2)c(Br)c1 (stereo not drawn) [F0777-1198] | 51%
